Measured values from paper PMC11997890, “In Vivo and In Vitro Pharmacokinetic Studies of a Dual Topoisomerase I/II Inhibitor” (ACS Pharmacology & Translational Science, 2025).

How the values were obtained:
CYP3A4 = tested on: CYP3A4; parameters: method as in not given; conditions: metabolized by CYP3A4; ref not given; cited from earlier work
OvCar8 spheroids = assay: 3D spheroid viability (RealTime-Glo); assay type: cell-based, human; conditions: OvCar8 3D spheroids, 48 h
Protocol: Tumor complexity is represented more realistically in 3D spheroid models than in 2D monolayer models.
OvCar8 cells (8000/well) were seeded into an Ultra-Low-Attachment plate (Corning #4520) and grown for 96 h. Then, spheroids were treated with the drugs for 48 h. Cell cytotoxicity was assessed using the CellTox Green Cytotoxicity Assay (Promega #G8731) 48 h after treatment with NYONE ([…], 485Ex/520Em). Filters: BFEx/GreenEm (530/43 nm); BlueEx (475/28 nm)/GreenEm (530/43 nm). Viability and apoptosis were determined by RealTime-Glo (460Em) (Promega #G9711) and caspase-Glo 3/7 (565Em) (Promega #G8090) according to the manufacturer’s instructions using a microplate reader (Spark, Tecan). Relative caspase activity: caspase activity divided by the viability (normalized to control). For live-dead staining, cells were grown and treated as described above. Then, 80% of the medium was removed and replaced with propidium iodide (PI) (15 μM), calcein-AM (0.2 μM), and Hoechst 33342 (1.8 μM) in medium for 3 h and imaged by NYONE ([…]). Filters: BFEx/GreenEm(530/43 nm); Hoechst 33342: UVEx (377/50 nm)/BlueEm (452/45 nm); calcein-AM: BlueEx (475/28 nm)/GreenEm (530/43 nm); propidium iodide: LimeEx(562/40 nm)/RedEm(628/32 nm). All experiments were performed in biological triplicates. PBS was used as the negative control, and cisplatin and P8-D6 as the positive control.

[1] = cited from earlier work; for CL / Oral bioavailability / Protein binding / V ss / t 1/2: literature values, ref numbers not given
[2] = parameters: method as in not given; conditions: human liver microsomes; ref not given; cited from earlier work

For `O=C(c1cc(Cc2n[nH]c(=O)c3ccccc23)ccc1F)N1CCN(C(=O)C2CC2)CC1` [Olaparib, olaparib], the “rate of three major metabolites” value (CYP3A4) is given as 8–12%.

`N.N.[Cl][Pt][Cl]` [cisplatin, reference compound] showed an IC50 (OvCar8 spheroids) of 13.5 µM.

For `COc1cccc2c1C(=O)c1c(O)c3c(c(O)c1C2=O)C[C@@](O)(C(=O)CO)C[C@@H]3O[C@H]1C[C@H](N)[C@H](O)[C@H](C)O1` [doxorubicin], the drug eliminated ([1]; after 7 days, ref not given) is listed as 25–45%, the CL [1] is listed as 12–34 L/(h m^2) and the Oral bioavailability [1] is listed as 5%. The Protein binding [1] was 50–85%, the V ss [1] was 809–1214 L/m^2 and the “t 1/2” value [1] was 17.3 to 26 h.

For `COc1cc([C@@H]2c3cc4c(cc3[C@@H](O[C@@H]3O[C@@H]5CO[C@@H](C)O[C@H]5[C@H](O)[C@H]3O)[C@H]3COC(=O)[C@H]23)OCO4)cc(OC)c1O` [etoposide], the CL [1] is given as 1–2 L/(h m^2), the Oral bioavailability [1] is given as 50 (40–75) % and the Protein binding [1] is given as 94–95%. The V ss [1] was 7.1 (5–17) L/m^2 and the “t 1/2” value [1] was 6.4 h.

For `COc1cc2ncnc(Nc3ccc(F)c(Cl)c3)c2cc1OCCCN1CCOCC1` [gefitinib], the Protein binding [1] is given as > 97%.

In the case of `CCc1c2c(nc3ccc(OC(=O)N4CCC(N5CCCCC5)CC4)cc13)-c1cc3c(c(=O)n1C2)COC(=O)[C@]3(O)CC` [irinotecan], the Protein binding [1] is given as 65%.

In the case of `CC[C@@]1(O)C(=O)OCc2c1cc1n(c2=O)Cc2c-1nc1cc3c(cc1c2CN1CCN(C)CC1)OCCO3` [lurtotecan], the CL [1] is listed as 60 L/(h m^2), the Oral bioavailability [1] is listed as 11.3 ± 5.2% and the Protein binding [1] is listed as 90%. The V ss [1] was 190 L/m^2 and the “t 1/2” value [1] was 3.7 h.

In the case of `CC[C@@]1(O)C(=O)OCc2c1cc1n(c2=O)Cc2cc3c(CN(C)C)c(O)ccc3nc2-1` [topotecan], the “mean ratio of N-demethylated metabolite to topotecan” value [2] is given as “approximately 3%”, the CL [1] is given as 14–34 L/(h m^2) and the Oral bioavailability [1] is given as 32–44%. The Protein binding [1] was 7–35% and the “t 1/2” value [1] was 3.1 to 4 h.
